Experimental data published in patent US10016376B2, “Composition for alleviating nephrotoxicity caused by immunosuppressive drug, comprising metformin, and composition for preventing or treating immune disease, comprising the same” (THE CATHOLIC UNIVERSITY OF KOREA INDUSTRY-ACADEMIC …, priority 2014, dated 2018).

What was measured:
IL-6 = IL-6 secreted by LPS-stimulated splenocytes; format: cell-based, C57BL/6 mice; settings: LPS 100 ng/ml, metformin 200 μM, FK506 100 nM, 3 days; vs control (LPS)
Description: (§1) Concentrations of TNF-α and IL-6 present in the resulting culture broth were measured to compare the drug effects (FIG. 10). Also, a concentration of immunoglobulins (IgG) present in the culture broth was measured in the same cell culture conditions to compare the drug effects (FIG. 11). The statistical analysis was carried out using a Graph prism (t-test, ANOVA), and the statistical significance was p<0.05.

IL-17 = assay: ELISA of IL-17 secreted by allogeneic reactive T cells in mixed lymphocyte culture; format: cell-based, Balb/c; settings: metformin 200 μM, 3 days
Description: (§2) To examine an effect of metformin and FK506 on the secretion of inflammatory cytokines by allogeneic reactive T cells, the allogeneic reactive T cells were treated with metformin (200 μM) or FK506 (1 nM or 100 nM) according to the experimental conditions, and then cultured for 3 days under the same in vitro allo-response conditions as in <Example 2>. Thereafter, levels of IFN-γ and IL-17 secreted by the T cells in the resulting culture broth were measured using ELISA (FIG. 5). The statistical analysis was carried out using a Graph prism (t-test, ANOVA), and the statistical significance was p<0.05. […] Thereafter, levels of IFN-γ and IL-17 secreted by the T cells in the resulting culture broth were measured using ELISA (FIG. 6). The statistical analysis was carried out using a Graph prism (t-test, ANOVA), and the statistical significance was p<0.05.

IFN-γ = assay: ELISA of IFN-γ secreted by allogeneic reactive T cells in mixed lymphocyte culture; format: cell-based, Balb/c; settings: metformin 200 μM, 3 days
Description: as §2

immunoglobulins (IgG) = immunoglobulins (IgG) secreted by LPS-stimulated splenocytes; format: cell-based, C57BL/6 mice; settings: LPS 100 ng/ml, metformin 200 μM, FK506 100 nM, 3 days; vs control (LPS)
Description: as §1

Treg cells = assay: flow cytometry of Treg activity under anti-CD3 T cell activation conditions; format: cell-based, C57BL/6 mice; settings: 3 days; for Treg activity (ratio of Foxp3+CD25+ cells to CD4+ T cells): metformin 200 μM, FK506 100 nM, anti-CD3 1 μg/ml
Description: An effect of metformin and FK506 on the activity of Treg cells under T cell activation conditions (anti-CD3 conditions) was examined (FIGS. 8A and 8B). Splenocytes obtained from normal C57BL/6 mice were seeded in a 24-well plate at a density of 1×10^6 cells/ml, treated with metformin (200 μM) or FK506 (100 nM) according to the experimental conditions, and then cultured for 3 days under anti-CD3 activation conditions (1 μg/ml). For the analysis using a flow cytometer, the cells were treated with an anti-CD4-percp antibody and an anti-CD25-APC antibody, reacted at 4° C. for 30 minutes, permeabilized, reacted with an anti-Foxp3-PE antibody, and then analyzed using the flow cytometer. To analyze the Treg activity, cells expressing a CD4+CD25+Foxp3 marker were gated and analyzed. For the results, the ratio of Foxp3+CD25+ cells to the whole cultured CD4+ T cells was plotted on a bar graph. The statistical analysis was carried out using a Graph prism (t-test, ANOVA), and the statistical significance was p<0.05.

[1] = system: allogeneic reactive T cells; assay: mixed lymphocyte reaction (MLR), [3H]-thymidine uptake; format: cell-based, Balb/c; settings: vs untreated Allo control
Description: To examine an immunomodulatory effect when T cells were co-treated with metformin and FK506 under in vitro allo-response conditions, an effect of metformin and FK506 on the proliferation of allogeneic reactive T cells was examined using a mixed lymphocyte culture method (i.e., a mixed lymphocyte reaction (MLR)) (FIG. 3). […] In this case, the T cells were treated separately or together with metformin (200 μM) or FK506 (1 nM or 100 nM) according to the experimental conditions, and then cultured for 3 days to stimulate an allogeneic response. On the last day of culture, [^3H]-thymidine was added, and the T cells were additionally cultured for 18 hours. Then, a level of [^3H]-thymidine uptake was measured using a liquid scintillation counter (Beckman, USA), and expressed as a cpm value. The statistical analysis was carried out using a Graph prism (t-test, ANOVA), and the statistical significance was p<0.05.

[2] = blood concentration of FK506 in whole blood (LC/MS/MS); format: in vivo; settings: Sprague-Dawley, rat, subcutaneous; rats, whole blood after 4 weeks; FK506 1.5 mg/kg s.c., with or without metformin 250 mg/kg oral
Description: Thereafter, a blood concentration of FK506 in the collected whole blood was measured using a mass spectrometer (API 3000 LC/MS/MS, Applied Biocystem, Foster City, Calif.).

TNF-α = TNF-α secreted by LPS-stimulated splenocytes; format: cell-based, C57BL/6 mice; settings: LPS 100 ng/ml, metformin 200 μM, FK506 100 nM, 3 days; vs control (LPS)
Description: as §1

[3] = system: Splenocytes obtained from normal C57BL/6 mice; assay: MTT assay under T cell activation conditions (anti-CD3); settings: metformin 200 μM, FK506 100 nM, 3 days, anti-CD3 1 μg/ml; vs control (aCD3)
Description: Splenocytes obtained from normal C57BL/6 mice were seeded in a 96-well plate at a density of 2×10^5 cells/ml, treated with metformin (200 μM) or FK506 (100 nM) according to the experimental conditions, and then cultured for 3 days under anti-CD3 activation conditions (1 μg/ml). In the MTT assay, a 3-(4,5dimethyl-thiazol-2-yl)-2,5-diphenyltetrazolium bromide compound was added before 4 hours of cell harvesting, and reacted for 4 hours. Thereafter, each well was treated with DMSO to measure the optical density at a wavelength of 540 nm.

[4] = metformin 200 μM, FK506 1 nM or 100 nM, 3 days

SMILES	concentration of IL-6 in the culture broth (IL-6)	concentration of IL-17 in the culture broth (IL-17; FK506 1 nM or 100 nM)	concentration of IFN-γ in the culture broth (IFN-γ; FK506 1 nM or 100 nM)	concentration of immunoglobulins (IgG) in the culture broth (immunoglobulins (IgG))	Treg activity (ratio of Foxp3+CD25+ cells to CD4+ T cells) (Treg cells)	proliferation of T cells ([3H]-thymidine uptake) [1, 4]	concentration at 4 weeks [2] [ng/mL]	concentration of TNF-α in the culture broth (TNF-α)	concentration of IL-17 in the culture broth (IL-17; CsA 10 nM or 100 nM)	cytotoxicity, optical density at 540 nm (MTT) [3]	concentration of IFN-γ in the culture broth (IFN-γ; CsA 10 nM or 100 nM)	Treg level/activity (ratio of Foxp3+CD25+ cells to CD4+ T cells) (Treg cells; metformin 1 mM, CsA 100 nM, anti-CD3)	proliferation of T cells ([3H]-thymidine uptake) ([1]; Met 200 μM or 1,000 μM, CsA 10 nM or 100 nM, co-administered metformin 200 μM)
C=CC[C@@H]1/C=C(\C)C[C@H](C)C[C@H](OC)[C@H]2O[C@@](O)(C(=O)C(=O)N3CCCC[C@H]3C(=O)O[C@H](/C(C)=C/[C@@H]3CC[C@@H](O)[C@H](OC)C3)[C@H](C)[C@@H](O)CC1=O)[C@H](C)C[C@@H]2OC [FK506, Tacrolimus]	not highly reduced	reduced	reduced	not significantly changed	increased	remarkably reduced in a concentration-dependent manner	10.2 ± 1.3	not highly reduced					
CN(C)C(=N)NC(=N)N [metformin, Metformin]	not highly reduced	reduced	reduced	not significantly changed	increased	suppressed		not highly reduced	reduced	no big difference in optical densities	reduced	increased	suppressed
